Reference: PMC9791658 (Journal of Medicinal Chemistry, 2022)

How the values were obtained:
14-3-3ζ/GR_pT524 [1] = biological target: 14-3-3ζ/GR_pT524 (Homo sapiens, UniProt P04150+P63104); assay: Fluorescence polarization; assay type: binding; details: for 14-3-3/GR PPI stabilization activity (in words): FP assay
14-3-3ζ/GR_pT524 [2] = biological target: T1, 14-3-3ζ/GR_pT524 (Homo sapiens, UniProt P63104); assay: SPR assay of GR_pT524 with 14-3-3ζ in the absence and presence of FC-A; assay type: binding; details: FC-A 1 mM
T1 sequence (P63104 1-245): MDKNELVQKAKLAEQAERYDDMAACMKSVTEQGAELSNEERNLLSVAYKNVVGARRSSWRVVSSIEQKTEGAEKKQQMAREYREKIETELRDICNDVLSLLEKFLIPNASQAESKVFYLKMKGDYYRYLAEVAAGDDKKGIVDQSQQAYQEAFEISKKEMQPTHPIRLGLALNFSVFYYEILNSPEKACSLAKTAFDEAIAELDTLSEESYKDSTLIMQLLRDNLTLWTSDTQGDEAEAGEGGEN

14-3-3ζ/ERα_pT594 = 14-3-3ζ/ERα_pT594 (Homo sapiens, UniProt P03372+P63104); assay: Fluorescence polarization; assay type: binding; details: FP assay
Caco-2 cells = assay: Permeability across Caco-2 cell monolayers; assay type: in vitro ADME; details: for permeability classification: Caco-2; for increase of permeability vs 1: Caco-2 Papp(A to B) relative to compound 1

Compound | 14-3-3/GR PPI stabilization activity (in words) (14-3-3ζ/GR_pT524 [1]) | 14-3-3/ERα PPI stabilization activity (in words) (14-3-3ζ/ERα_pT594) | other results
O=C(C1=C(O)C(=O)N(c2ccc(O)c(C(=O)O)c2)C1c1ccc([N+](=O)[O-])cc1)c1cccc(OC(F)F)c1 (centres unmarked) [Compound 19, 5-(3-(3-(Difluoromethoxy)benzoyl)-4-hydroxy-2-(4-nitrophenyl)-5-oxo-2,5-dihydro-1H-pyrrol-1-yl)-2-hydroxybenzoic Acid] | abolished activity | abolished activity | –
O=C(C1=C(O)C(=O)N(c2ccc(O)c(C(=O)O)c2)C1c1ccccc1)c1ccccc1 (centres unmarked) [Compound 21, 5-(3-Benzoyl-4-hydroxy-5-oxo-2-phenyl-2,5-dihydro-1H-pyrrol-1-yl)-2-hydroxybenzoic Acid] | loss of measurable activity | loss of measurable activity | –
Nc1ccc(C2C(C(=O)c3ccccc3)=C(O)C(=O)N2c2ccc(O)c(C(=O)O)c2)cc1 (centres unmarked) [Compound 17, 5-(2-(4-Aminophenyl)-3-benzoyl-4-hydroxy-5-oxo-2,5-dihydro-1H-pyrrol-1-yl)-2-hydroxybenzoic Acid] | loss of measurable activity | loss of measurable activity | –
O=C(O)c1cc(N2C(=O)C(O)=C(c3ccccc3)C2c2ccc([N+](=O)[O-])cc2)ccc1O (single isomer, unassigned; (-)) [(−)-28, 2-Hydroxy-5-(3-hydroxy-5-(4-nitrophenyl)-2-oxo-4-phenyl-2,5-dihydro-1H-pyrrol-1-yl) benzoic Acid] | – | no 14-3-3/ERα PPI stabilization activity | –
O=C(C1=C(O)C(=O)N(c2ccc(O)c(C(=O)O)c2)C1c1ccc([N+](=O)[O-])cc1)c1ccccc1 (centres unmarked) [Compound 1, 5-(3-Benzoyl-4-hydroxy-2-(4-nitrophenyl)-5-oxo-2,5-dihydro-1H-pyrrol-1-yl)-2-hydroxybenzoic Acid] | – | – | decrease in potency for 14-3-3/GR compared to 14-3-3/ERα (14-3-3ζ/GR_pT524 [1]; from EC1.2 values): approximately 2 fold; permeability classification (Caco-2 cells): low permeability
O=C(O)c1cc(N2C(=O)C(O)=C(c3ccccc3)C2c2ccc([N+](=O)[O-])cc2)ccc1O (single isomer, unassigned; (+)) [(+)-28, 2-Hydroxy-5-(3-hydroxy-5-(4-nitrophenyl)-2-oxo-4-phenyl-2,5-dihydro-1H-pyrrol-1-yl) benzoic Acid] | – | no 14-3-3/ERα PPI stabilization activity | –
O=C(C1=C(O)C(=O)N(c2ccc(O)c(C(=O)O)c2)[C@H]1c1ccc([N+](=O)[O-])cc1)c1ccccc1 [(S)-1, 5-(3-Benzoyl-4-hydroxy-2-(4-nitrophenyl)-5-oxo-2,5-dihydro-1H-pyrrol-1-yl)-2-hydroxybenzoic Acid] | – | completely inactive | –

Now from value to compound, other results behind:

14-3-3/GR PPI stabilization activity (in words) (14-3-3ζ/GR_pT524 [1]) | 14-3-3/ERα PPI stabilization activity (in words) (14-3-3ζ/ERα_pT594) | Compound | other results
does not stabilize | – | C=CC(C)(C)OC[C@H]1O[C@H](O[C@@H]2C3=C([C@H](C)COC(C)=O)C[C@H](O)[C@]3(C)/C=C3/[C@@H](COC)CC[C@H]3[C@@H](C)[C@H]2O)[C@H](O)[C@@H](O)[C@@H]1O [FC-A, Fusicoccin A, reference compound] | effect on the interaction between GR_pT524 and 14-3-3ζ (SPR) (14-3-3ζ/GR_pT524 [2]): does not stabilize
only marginal activity | – | O=C(C1=C(O)C(=O)N(c2ccc(O)cc2)C1c1ccc([N+](=O)[O-])cc1)c1ccccc1 (centres unmarked) [Compound 22, 4-Benzoyl-3-hydroxy-1-(4-hydroxyphenyl)-5-(4-nitrophenyl)-1,5-dihydro-2H-pyrrol-2-one] | permeability classification (Caco-2 cells): medium permeability; increase of permeability vs 1 (Caco-2 cells): 3 fold
only marginal activity | – | O=C(C1=C(O)C(=O)N(c2ccccc2O)C1c1ccc([N+](=O)[O-])cc1)c1ccccc1 (centres unmarked) [Compound 23, 4-Benzoyl-3-hydroxy-1-(2-hydroxyphenyl)-5-(4-nitrophenyl)-1,5-dihydro-2H-pyrrol-2-one] | permeability classification (Caco-2 cells): medium permeability; increase of permeability vs 1 (Caco-2 cells): 5 fold
– | inactive | O=C(O)c1cc(N2C(=O)C(O)=C(c3ccccc3)C2c2ccc([N+](=O)[O-])cc2)ccc1O (centres unmarked) [Compound 28, 2-Hydroxy-5-(3-hydroxy-5-(4-nitrophenyl)-2-oxo-4-phenyl-2,5-dihydro-1H-pyrrol-1-yl) benzoic Acid] | –
